# In ChEMBL document CHEMBL1124934, “Synthesis and structure-activity relationships of dynorphin A-(1-8) amide analogues” (J Med Chem, 1990):
# Species on record: Mus musculus
# Experiment: animal or person
# Conditions: iv
smiles,measurement,value
CN1CC[C@]23c4c5ccc(O)c4O[C@H]2[C@@H](O)C=C[C@H]3[C@H]1C5 [MORPHINE],ED50,1.85 mg/kg
